From patent US20170334927A1 (Shanghai Sun-sail Pharmaceutical Science & Technology Co., …, priority 2014, published 2017)
Values after ≈ are worked out from the molar mass of the structure shown.

How the values were obtained:
[1] = tested on: Mycobacterium tuberculosis H37Rv; assay: Activity test for Mycobacterium tuberculosis (MIC, H37Rv); assay type: cell-based; conditions: for MIC: Mycobacterium tuberculosis H37Rv, liquid medium, 37° C., read-out: Minimum inhibitory concentration against H37Rv; for anti Mycobacterium tuberculosis activity (MIC against H37Rv), times of that of PA-824: relative to PA-824; for anti Mycobacterium tuberculosis activity (MIC against H37Rv), times of that of ethambutol: relative to ethambutol
Method: The tested strain H37Rv was transferred to liquid medium and cultured for 2 weeks at 37° C.; a small amount of the cultured bacterial solution was pipetted and placed in 4 mL of liquid medium; 10-20 sterile glass beads with a diameter of 2-3 mm were added; the mixture was shaken for 20-30 s and left to sediment for 10-20 min; the supernatant of the bacterial suspension was pipetted and adjusted to a turbidity of 1 MCF (equivalent to 1×10^7 CFU/mL) with the liquid medium for use. Each drug was dissolved to 1 mg/mL with an appropriate amount of DMSO and filtered with a 0.22 μm filter. Then, the solution was diluted to a desired experimental concentration with the liquid medium. The final concentrations of the tested drugs were set as follows: 0.001 μg/mL, 0.002 μg/mL, 0.0039 μg/mL, 0.0078 μg/mL, […], 0.03125 μg/mL, 0.0625 μg/mL, 0.125 μg/mL, 0.25 μg/mL, 0.5 μg/mL and 1 μg/mL, a total of 11 concentration gradients. 100 μL of each of the above-mentioned drug solutions was added to a 96-well microwell plate, then 100 μL bacterial solution with a concentration of 1 mg/mL was added to allow the drug concentration to reach the final set concentration, and cultured at 37° C. Three groups in parallel were set for each drug dilution with inoculation amounts of 100%, 10% and 1%, respectively, while no drug was added to the control group.

physchem = assay type: physicochemical; conditions: for Solubility: 3 days, pH 1.2; for solubility at 3 days: pH 1.2, simulated gastric fluid, thermodynamic from solid
Method: 3-5 mg of compound to be tested was added to 0.5 mL of aqueous HCl solution (pH=1.2) and the mixture was shaken for three days on a shaker; the sample was centrifuged for 5 min at 10,000 rpm in a centrifuge; a volumetric flask (50 mL) was loaded with 2 mL of supernatant and water was added to a volume at the graduation mark to prepare a sample solution; and 2.6 mg of sample was precisely weighed into a volumetric flask (50 mL), an appropriate amount of methanol was added to dissolve the sample, and water was added to a volume at the graduation mark and shaken well to give a control sample solution. 20 μL of sample solution and control sample solution were each injected, and tested by liquid chromatography. The solubility was calculated as follows:
Solubility (mg/mL)=C (control)*25*A (sample)/A (control)
C (control): concentration of the control sample
A (sample): peak area of the liquid chromatogram of the sample solution
A (control): peak area of the liquid chromatogram of the control sample solution

[2] = Drug metabolism test (pharmacokinetics, oral, mice); assay type: in vivo, ICR mice; conditions: 10 mg/kg; for AUC(0-inf) / AUC(0-t) / Cmax / MRT / Tmax / half-life: male, ICR, mouse, po, orally (intragastric), plasma; for pharmacokinetic properties (in words): orally, judgement on Table 6
Method: 18 healthy male ICR mice with a body weight of 18-22 g were administered drugs by intragastric administration, with an administration dose of 10 mg/kg and an administration volume of 10 mL/kg, respectively. These mice were fasted for 12 h before the test and had free access to drinking water. These mice were fed 2 h after administration uniformly. 0.3 mL of blood was taken from the postocular venous plexus of a mouse at the set time points, placed in a heparinized test tube and centrifuged for 10 min at 3000 rpm; and plasma was separated and frozen in a refrigerator at −20° C. When measured, the sample was treated through the method for treating the plasma sample, and the drug concentration in plasma was determined by LC-MS/MS and the pharmacokinetic parameters of the drug were calculated.

Row | SMILES | MIC [1] [µg/mL] | anti Mycobacterium tuberculosis activity (MIC against H37Rv), times of that of PA-824 [1] [times] | anti Mycobacterium tuberculosis activity (MIC against H37Rv), times of that of ethambutol [1] [times] | other results
1 | CC[C@@H](CO)NCCN[C@@H](CC)CO [Ethambutol, reference compound] | 0.5 (≈ 2.45 µM) | – | – | –
2 | O=[N+]([O-])c1cn2c(n1)OC[C@@H](NCc1cnc(N3CCC(Oc4ccc(OC(F)(F)F)cc4)CC3)nc1)C2 [Compound 15] | 0.0312 (≈ 0.0584 µM) | – | – | –
3 | O=[N+]([O-])c1cn2c(n1)OC[C@@H](NCc1cnc(N3CC4CN(c5ccc(OC(F)(F)F)cc5)CC4C3)nc1)C2 (stereo partly shown) [Compound 25] | 0.0156 (≈ 0.0285 µM) | – | – | –
4 | COc1nc(N2CCN(c3ccc(OC(F)(F)F)cc3)CC2)ncc1CN[C@@H]1COc2nc([N+](=O)[O-])cn2C1 [Compound 38, (S)—N-((4-methoxy-2-(4-(4-(trifluoromethoxy)phenyl)piperazin-1-yl)pyrimidin-5-yl)methyl)-2-nitro-6,7-dihydro-5H-imidazo[2,1-b][1,3]oxazin-6-amine] | 0.0156 (≈ 0.0283 µM) | – | – | –
5 | O=[N+]([O-])c1cn2c(n1)OC[C@@H](NCc1ccc(N3CCN(c4ccc(OC(F)(F)F)cc4)CC3)nc1)C2 [Compound 4, (S)-2-nitro-N-((6-(4-(4-(trifluoromethoxy)phenyl)piperazin-1-yl)pyrid-3-yl)methyl)-6,7-dihydro-5H-imidazo[2,1-b][1,3]oxazin-6-amine] | 0.00195 (≈ 0.00375 µM) | 32 | 256 | Solubility (physchem): 1.2572 mg/mL (≈ 2420 µM); solubility at 3 days (physchem): > 1000 µg/mL; AUC(0-inf) [2]: 17300 ng·h/mL; AUC(0-t) [2]: 17200 ng·h/mL; Cmax [2]: 1780 ng/mL; MRT [2]: 5.56 h; Tmax [2]: 2 h; half-life [2]: 203 min
6 | O=[N+]([O-])c1cn2c(n1)OC[C@@H](NCc1ccc(N3CCC(Oc4ccc(OC(F)(F)F)cc4)CC3)nc1)C2 [Compound 1, (S)-2-nitro-N-((6-(4-(4-(trifluoromethoxy)phenoxy)piperidin-1-yl)pyrid-3-yl)methyl)-6,7-dihydro-5H-imidazo[2,1-b][1,3]oxazin-6-amine] | 0.0078 (≈ 0.0146 µM) | 8 | 64 | solubility at 3 days (physchem): 784 µg/mL (≈ 1470 µM); AUC(0-inf) [2]: 32300 ng·h/mL; AUC(0-t) [2]: 31300 ng·h/mL; Cmax [2]: 2670 ng/mL; MRT [2]: 6.64 h; Tmax [2]: 2.33 h; half-life [2]: 286 min; pharmacokinetic properties (in words) [2]: excellent
7 | O=[N+]([O-])c1cn2c(n1)OC[C@@H](NCc1ccc(N3C4CCC3CC(Oc3ccc(OC(F)(F)F)cc3)C4)nc1)C2 (stereo partly drawn) [Compound 14, (6S)-2-nitro-N-((6-(3-(4-(trifluoromethoxy)phenoxy)-8-azabicyclo[3.2.1]octan-8-yl)pyrid-3-yl)methyl)-6,7-dihydro-5H-imidazo[2,1-b][1,3]oxazin-6-amine] | 0.0078 (≈ 0.0139 µM) | 8 | 64 | –
8 | O=[N+]([O-])c1cn2c(n1)OC[C@@H](NCc1ccc(N3CCC4(CC3)CN(c3ccc(OC(F)(F)F)cc3)C4)nc1)C2 [Compound 13, (S)-2-nitro-N-((6-(2-(4-(trifluoromethoxy)phenyl)-2,7-diazaspiro[3.5]nonan-7-yl)pyrid-3-yl)methyl)-6,7-dihydro-5H-imidazo[2,1-b][1,3]oxazin-6-amine] | 0.0156 (≈ 0.0279 µM) | – | – | –
9 | O=[N+]([O-])c1cn2c(n1)OC[C@@H](NCc1cnc(N3C4CCC3CC(Oc3ccc(OC(F)(F)F)cc3)C4)nc1)C2 (stereo partly shown) [Compound 28] | 0.0156 (≈ 0.0278 µM) | – | – | –
10 | CC1CN(c2ccc(OC(F)(F)F)cc2)CCN1c1ncc(CN[C@@H]2COc3nc([N+](=O)[O-])cn3C2)cn1 (stereo partly drawn) [Compound 20, (3S)—N-((6-(2-methyl-4-(4-(trifluoromethoxy)phenyl)piperazin-1-yl)pyrimidin-3-yl)methyl)-7-nitro-3,4-dihydro-2H-imidazo[2,1-b][1,3]oxazin-3-amine] | 0.00195 (≈ 0.00365 µM) | 32 | 256 | Solubility (physchem): 1.0238 mg/mL (≈ 1920 µM); solubility at 3 days (physchem): > 1000 µg/mL; AUC(0-inf) [2]: 21600 ng·h/mL; AUC(0-t) [2]: 21500 ng·h/mL; Cmax [2]: 2100 ng/mL; MRT [2]: 4.82 h; Tmax [2]: 2.33 h; half-life [2]: 179 min; pharmacokinetic properties (in words) [2]: excellent
11 | N#Cc1nc(N2CCN(c3ccc(OC(F)(F)F)cc3)CC2)ncc1CN[C@@H]1COc2nc([N+](=O)[O-])cn2C1 [Compound 40, (S)-5-(((2-nitro-6,7-dihydro-5H-imidazo[2,1-b][1,3]oxazin-6-yl)amino)methyl)-2-(4-(4-(trifluoromethoxy)phenyl)piperazin-1-yl)pyrimidine-4-carbonitrile] | 0.0078 (≈ 0.0143 µM) | 8 | 64 | –
12 | CC1CN(c2ccc(OC(F)(F)F)cc2)CCN1c1ccc(CN[C@@H]2COc3nc([N+](=O)[O-])cn3C2)cn1 (stereo partly drawn) [Compound 6, (3S)—N-((6-(2-methyl-4-(4-(trifluoromethoxy)phenyl)piperazin-1-yl)pyrid-3-yl)methyl)-7-nitro-3,4-dihydro-2H-imidazo[2,1-b][1,3]oxazin-3-amine] | 0.00195 (≈ 0.00366 µM) | 32 | 256 | –
13 | O=[N+]([O-])c1cn2c(n1)OC[C@@H](NCc1cnc(N3CCN(c4ccc(OC(F)(F)F)cc4)CC3)nc1C(F)(F)F)C2 [Compound 41, (S)-2-nitro-N-((2-(4-(4-(trifluoromethoxy)phenyl)piperazin-1-yl)-4-(trifluoromethyl)pyrimidin-5-yl)methyl)-6,7-dihydro-5H-imidazo[2,1-b][1,3]oxazin-6-amine] | 0.0312 (≈ 0.0531 µM) | – | – | –
14 | CC1CN(c2ccc(CN[C@@H]3COc4nc([N+](=O)[O-])cn4C3)cn2)CCN1c1ccc(OC(F)(F)F)cc1 (stereo partly drawn) [Compound 5, (3S)—N-((6-(3-methyl-4-(4-(trifluoromethoxy)phenyl)piperazin-1-yl)pyrid-3-yl)methyl)-7-nitro-3,4-dihydro-2H-imidazo[2,1-b][1,3]oxazin-3-amine] | 0.0039 (≈ 0.00731 µM) | 16 | 128 | –
15 | CN(Cc1cnc(N2CCN(c3ccc(OC(F)(F)F)cc3)CC2)nc1)[C@@H]1COc2nc([N+](=O)[O-])cn2C1 [Compound 44, (S)—N-methyl-2-nitro-N-((2-(4-(4-(trifluoromethoxy)phenyl)piperazin-1-yl)pyrimidin-5-yl)methyl)-6,7-dihydro-5H-imidazo[2,1-b][1,3]oxazin-6-amine] | 0.00195 (≈ 0.00365 µM) | 32 | 256 | –
16 | O=[N+]([O-])c1cn2c(n1)OC[C@@H](NCc1ccc(N3CCC(Oc4ccc(OC(F)(F)F)cc4)C(F)C3)nc1)C2 (stereo partly drawn) [Compound 3, (6S)—N-((6-(3-fluoro-4-(4-(trifluoromethoxy)phenoxy)piperidin-1-yl)pyrid-3-yl)methyl)-2-nitro-6,7-dihydro-5H-imidazo[2,1-b][1,3]oxazin-6-amine] | 0.0156 (≈ 0.0282 µM) | – | – | –
17 | O=[N+]([O-])c1cn2c(n1)OC[C@@H](NCc1ccc(N3CC4CN(c5ccc(OC(F)(F)F)cc5)CC4C3)nc1)C2 (stereo partly drawn) [Compound 11, (6S)-2-nitro-N-((6-(5-(4-(trifluoromethoxy)phenyl)hexahydropyrrolo[3,4-c]pyrrol-2(1H)-yl)pyrid-3-yl)methyl)-6,7-dihydro-5H-imidazo[2,1-b][1,3]oxazin-6-amine] | 0.0312 (≈ 0.0573 µM) | – | – | –
